In the supplement of paper PMC10307832:

Columns and labels:
Experiment in all cases: relative viability (nuclei count vs DMSO), 5 days (fraction); higher = more cells survive
Pictilisib + Tozasertib = compound: CS(=O)(=O)N1CCN(Cc2cc3nc(-c4cccc5[nH]ncc45)nc(N4CCOCC4)c3s2)CC1 [Pictilisib] + Cc1cc(Nc2cc(N3CCN(C)CC3)nc(Sc3ccc(NC(=O)C4CC4)cc3)n2)n[nH]1 [Tozasertib] (partner 0.1 µM)
Summary of the method: (§1)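 Relative viability equals treated-well nuclei counts divided by vehicle-well nuclei counts. Counts came from 4× images of lung cancer cell lines grown in 1536-well plates for 5 days after pin-tool dosing on the day after seeding. Dosing used one drug alone or a fixed anchor-drug dose plus five library-drug doses (not always all listed) in √10 steps, and values are medians of duplicate plates.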

Pictilisib + Alpelisib = compound: CS(=O)(=O)N1CCN(Cc2cc3nc(-c4cccc5[nH]ncc45)nc(N4CCOCC4)c3s2)CC1 [Pictilisib] + Cc1nc(NC(=O)N2CCC[C@H]2C(N)=O)sc1-c1ccnc(C(C)(C)C(F)(F)F)c1 [Alpelisib] (partner 2 µM)
Summary of the method: as §1

MK-2206 + Navitoclax = compound: NC1(c2ccc(-c3nc4ccn5c(=O)[nH]nc5c4cc3-c3ccccc3)cc2)CCC1 [MK-2206] + CC1(C)CCC(c2ccc(Cl)cc2)=C(CN2CCN(c3ccc(C(=O)NS(=O)(=O)c4ccc(N[C@H](CCN5CCOCC5)CSc5ccccc5)c(S(=O)(=O)C(F)(F)F)c4)cc3)CC2)C1 [Navitoclax] (partner 0.5 µM)
Summary of the method: as §1

MK-2206 + Foretinib = compound: NC1(c2ccc(-c3nc4ccn5c(=O)[nH]nc5c4cc3-c3ccccc3)cc2)CCC1 [MK-2206] + COc1cc2c(Oc3ccc(NC(=O)C4(C(=O)Nc5ccc(F)cc5)CC4)cc3F)ccnc2cc1OCCCN1CCOCC1 [Foretinib] (partner 0.25 µM)
Summary of the method: as §1

MK-2206 + Olaparib = compound: NC1(c2ccc(-c3nc4ccn5c(=O)[nH]nc5c4cc3-c3ccccc3)cc2)CCC1 [MK-2206] + O=C(c1cc(Cc2n[nH]c(=O)c3ccccc23)ccc1F)N1CCN(C(=O)C2CC2)CC1 [Olaparib] (partner 8 µM)
Summary of the method: as §1

Cell Line	relative viability (Pictilisib + Tozasertib; first compound 0.02 µM)	relative viability (Pictilisib + Tozasertib; first compound 0.06325 µM)	relative viability (Pictilisib + Tozasertib; first compound 0.6325 µM)	relative viability (Pictilisib + Tozasertib; first compound 2 µM)	relative viability (Pictilisib + Alpelisib; first compound 0.02 µM)	relative viability (Pictilisib + Alpelisib; first compound 0.06325 µM)	relative viability (Pictilisib + Alpelisib; first compound 0.6325 µM)	relative viability (Pictilisib + Alpelisib; first compound 2 µM)	relative viability (MK-2206 + Navitoclax; first compound 0.01 µM)	relative viability (MK-2206 + Navitoclax; first compound 0.03162 µM)	relative viability (MK-2206 + Navitoclax; first compound 0.3162 µM)	relative viability (MK-2206 + Navitoclax; first compound 1 µM)	relative viability (MK-2206 + Foretinib; first compound 0.01 µM)	relative viability (MK-2206 + Foretinib; first compound 0.03162 µM)	relative viability (MK-2206 + Foretinib; first compound 0.3162 µM)	relative viability (MK-2206 + Foretinib; first compound 1 µM)	relative viability (MK-2206 + Olaparib; first compound 0.01 µM)	relative viability (MK-2206 + Olaparib; first compound 0.03162 µM)	relative viability (MK-2206 + Olaparib; first compound 0.3162 µM)	relative viability (MK-2206 + Olaparib; first compound 1 µM)
NCI-H322M	0.494	0.49	0.4	0.282	0.845	0.8	0.872	0.684	1.14	1.13	1.25	1.1	0.871	1.11	1.1	1.01	0.778	0.806	0.782	0.874
NCI-H1734	0.254	0.275	0.226	0.193	0.709	0.588	0.546	0.406	0.848	0.85	0.584	0.681	1	0.994	0.682	0.64	0.63	0.667	0.648	0.507
NCI-H2228	0.272	0.211	0.169	0.0908	0.674	0.665	0.507	0.35	1.12	0.724	0.678	0.585	0.761	0.811	0.614	0.467	0.832	0.594	0.464	0.417
EKVX	0.369	0.324	0.317	0.215	0.913	0.882	0.761	0.339	0.859	1.05	0.934	0.65	0.877	0.673	0.855	0.387	0.866	0.777	0.745	0.67
NCI-H596	0.822	0.901	0.591	0.356	0.476	0.481	0.523	0.36	0.948	1.06	0.756	0.669	1.02	0.921	0.677	0.77	0.745	0.698	0.732	0.688
NCI-H1975	0.821	0.691	0.361	0.107	0.69	0.564	0.41	0.227	1.05	0.969	0.938	0.787	1.08	0.96	0.91	0.801	0.705	0.782	0.764	0.663
NCI-H2170	0.875	0.823	0.61	0.391	0.834	0.879	0.813	0.583	0.65	0.485	0.546	0.512	1.06	1.04	1.02	1.02	0.617	0.585	0.597	0.558
